The results in this text go back to patent US20040224939A1, “Antibacterial agents” (priority 2003, published 2004).

In brackets after ≈: the same amount, converted by molar mass. Some results are limits rather than exact numbers.

One experiment concerns E. faecalis MGH-2. As to the kind of experiment: Antibacterial assay (Test A), standard microtitration MIC, Gram positive. Format: cell-based. The note with it: Gram Positive Bacteria, strain MGH-2; for MIC: Enterococcus faecalis, MGH2, read-out: Minimum Inhibitory Concentrations, E. faecalis MGH-2. On the procedure:
(§1) Test A—Antibacterial Assays
(§2) The compounds of the present invention were tested against an assortment of Gram-negative and Gram-positive organisms using standard microtitration techniques (Cohen et. al., Antimicrob., 1985;28:766; Heifetz, et. al., Antimicrob., 1974;6:124).

For another experiment, the system named is S pyogenes C203. The description is as above. Format: cell-based. The settings on record: Gram Positive Bacteria, strain C203; for MIC: read-out: Minimum Inhibitory Concentrations, S pyogenes C203. The procedure:
as §1, §2

The test system of another experiment is S. aureus UC-76. The description is as above. Format: cell-based. The note with it: Gram Positive Bacteria, strain UC-76; for MIC: Staphylococcus aureus, UC76, read-out: Minimum Inhibitory Concentrations, S. aureus UC-76. The procedure: as §1, §2
Another experiment deals with H. influenzae H13542. Nature of the experiment: Antibacterial assay (Test A), standard microtitration MIC, Gram negative. The note with it: Gram Negative Bacteria, strain H13542; for MIC: Haemophilus influenzae, read-out: Minimum Inhibitory Concentrations, H. influenzae H13542. Type of experiment: cell-based. The procedure:
as §1, §2

For another experiment, the system named is E. coli Tol C. The experiment is described as above. Type of experiment: cell-based. The note with it: for MIC: Escherichia coli, read-out: Minimum Inhibitory Concentrations, E. coli Tol C. On the procedure:
as §1, §2

The subject of another experiment is M. catarrhalis BC3534. The description is as above. Type of experiment: cell-based. The settings on record: Gram Negative Bacteria, strain BC3534; for MIC: Moraxella catarrhalis, read-out: Minimum Inhibitory Concentrations, M. catarrhalis BC3534. The procedure:
as §1, §2

Experiment [1] relates to E. coli transcription and translation (TnT), E. coli S30 fraction. Nature of the experiment: E. coli transcription and translation (TnT) assay, cell free, luciferase luminescence.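 Note: printed under a heading of minimum inhibitory concentration in µg/mL.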 Format: biochemical. The note with it: cell free E. coli S30, firefly luciferase plasmid pBESTluc, 20 minutes at room temperature.

Consider `CC(=O)NC[C@H]1CN(c2ccc3c(c2)C=CCCC3)C(=O)O1`, for which the MIC in the experiment on E. faecalis MGH-2 is 4 µg/mL (≈ 13.3 µM); in the experiment on S pyogenes C203, 2 µg/mL (≈ 6.66 µM); in the experiment on S. aureus UC-76, 4 µg/mL (≈ 13.3 µM); in the experiment on H. influenzae H13542, more than 64 µg/mL; with E. coli Tol C it was more than 64 µg/mL; in the experiment on M. catarrhalis BC3534, 32 µg/mL (≈ 107 µM).

As to `CC(=O)NC[C@H]1CN(c2ccc3c(c2)CCN(C(=O)Cc2cccs2)CC3)C(=O)O1`, in experiment [1], the “Inhibitory concentration in E. coli cell-free transcription/translation assay” value worked out at 2.3 µg/mL. For the same molecule, the MIC was 0.25 µg/mL (≈ 0.585 µM) in the experiment on E. faecalis MGH-2; 0.125 µg/mL (≈ 0.292 µM) in the experiment on S pyogenes C203; 0.25 µg/mL (≈ 0.585 µM) with S. aureus UC-76; more than 64 µg/mL in the experiment on H. influenzae H13542; more than 64 µg/mL in the experiment with E. coli Tol C; 16 µg/mL (≈ 37.4 µM) in the experiment with M. catarrhalis BC3534.

Regarding `CC(=O)NC[C@H]1CN(c2ccc3c(c2)CCCC(Cc2ccsc2)C3=O)C(=O)O1` (stereo partly shown), in experiment [1], the “Inhibitory concentration in E. coli cell-free transcription/translation assay” value was determined as 0.84 µg/mL. Further, the MIC in the experiment with E. faecalis MGH-2 was 0.5 µg/mL (≈ 1.21 µM); in the experiment with S pyogenes C203, 0.25 µg/mL (≈ 0.606 µM); in the experiment on S. aureus UC-76, 0.25 µg/mL (≈ 0.606 µM); in the experiment on H. influenzae H13542 it was 2 µg/mL (≈ 4.85 µM); in the experiment on E. coli Tol C, more than 64 µg/mL; in the experiment with M. catarrhalis BC3534, 1 µg/mL (≈ 2.42 µM).

`COC(=O)C1CCCc2cc(N3C[C@H](CNC(C)=O)OC3=O)ccc2C1=O` (stereo partly shown): the “Inhibitory concentration in E. coli cell-free transcription/translation assay” value in experiment [1] was found to be 4.7 µg/mL. Moreover, the MIC in the experiment on E. faecalis MGH-2 was 2 µg/mL (≈ 5.34 µM); with S pyogenes C203, 4 µg/mL (≈ 10.7 µM); in the experiment with S. aureus UC-76 it was 4 µg/mL (≈ 10.7 µM); with H. influenzae H13542, 32 µg/mL (≈ 85.5 µM); with E. coli Tol C it was more than 64 µg/mL; with M. catarrhalis BC3534, 16 µg/mL (≈ 42.7 µM).

For the molecule `CC(=O)NCC1CN(c2ccc3c(c2)CCCCC3=O)C(=O)O1` (stereo not shown) [Example 2, N-[2-Oxo-3-(5-oxo-6,7,8,9-tetrahydro-5H-benzocyclohepten-2-yl)-oxazolidin-5-ylmethyl]-acetamide], in experiment [1], the “Inhibitory concentration in E. coli cell-free transcription/translation assay” value was 3.9 µg/mL. Further, the MIC was more than 64 µg/mL with E. faecalis MGH-2; more than 64 µg/mL in the experiment on S pyogenes C203; more than 64 µg/mL in the experiment with S. aureus UC-76; 8 µg/mL (≈ 25.3 µM) with H. influenzae H13542; more than 64 µg/mL in the experiment with E. coli Tol C; 4 µg/mL (≈ 12.6 µM) in the experiment with M. catarrhalis BC3534.

`CC(=O)NCC1CN(c2ccc3c(c2)CCC(=O)CC3)C(=O)O1` (stereo not shown) [Example 4, N-[2-Oxo-3-(7-oxo-6,7,8,9-tetrahydro-5H-benzocyclohepten-2-yl)-oxazolidin-5-ylmethyl]-acetamide]: the “Inhibitory concentration in E. coli cell-free transcription/translation assay” value in experiment [1] stood at 8.2 µg/mL. Besides, the MIC was 8 µg/mL (≈ 25.3 µM) in the experiment on E. faecalis MGH-2; 4 µg/mL (≈ 12.6 µM) in the experiment on S pyogenes C203; 4 µg/mL (≈ 12.6 µM) in the experiment on S. aureus UC-76; 64 µg/mL (≈ 202 µM) in the experiment on H. influenzae H13542; more than 64 µg/mL in the experiment on E. coli Tol C; 32 µg/mL (≈ 101 µM) with M. catarrhalis BC3534.

As for `CC(=O)NCC1CN(c2ccc3c(c2)CC(=O)CCC3)C(=O)O1` (stereo not shown) [Example 5, N-[2-Oxo-3-(8-oxo-6,7,8,9-tetrahydro-5H-benzocyclohepten-2-yl)-oxazolidin-5-ylmethyl]-acetamide], the “Inhibitory concentration in E. coli cell-free transcription/translation assay” value in experiment [1] amounted to 2.3 µg/mL. The MIC is 16 µg/mL (≈ 50.6 µM) in the experiment with E. faecalis MGH-2; 8 µg/mL (≈ 25.3 µM) in the experiment with S pyogenes C203; 8 µg/mL (≈ 25.3 µM) in the experiment with S. aureus UC-76; 64 µg/mL (≈ 202 µM) in the experiment on H. influenzae H13542; more than 64 µg/mL with E. coli Tol C; 64 µg/mL (≈ 202 µM) in the experiment with M. catarrhalis BC3534.

For the molecule `CC(=O)NCC1CN(c2ccc3c(c2)C=CCCC3)C(=O)O1` (stereo not shown) [Example 6, N-[3-(6,7-dihydro-5H-benzocyclohepten-2-yl)-2-oxo-oxazolidin-5-ylmethyl]acetamide], the “Inhibitory concentration in E. coli cell-free transcription/translation assay” value in experiment [1] was 15 µg/mL. Further, the MIC in the experiment on E. faecalis MGH-2 was 4 µg/mL (≈ 13.3 µM); with S pyogenes C203 it was 2 µg/mL (≈ 6.66 µM); with S. aureus UC-76, 4 µg/mL (≈ 13.3 µM); in the experiment on H. influenzae H13542 it was more than 64 µg/mL; in the experiment on E. coli Tol C it was more than 64 µg/mL; in the experiment with M. catarrhalis BC3534, 32 µg/mL (≈ 107 µM).

With `CC(=O)NCC1CN(c2ccc3c(c2)CCCC(=O)C3)C(=O)O1` (stereo not shown) [Example 7, N-[2-Oxo-3-(6-oxo-6,7,8,9-tetrahydro-5H-benzocyclohepten-2-yl)-oxazolidin-5-ylmethyl]-acetamide], in experiment [1], the “Inhibitory concentration in E. coli cell-free transcription/translation assay” value stood at 12 µg/mL. Besides, the MIC in the experiment on E. faecalis MGH-2 is 4 µg/mL (≈ 12.6 µM); in the experiment on S pyogenes C203 it was 2 µg/mL (≈ 6.32 µM); with S. aureus UC-76, 4 µg/mL (≈ 12.6 µM); in the experiment on H. influenzae H13542 it was 32 µg/mL (≈ 101 µM); in the experiment on E. coli Tol C, more than 64 µg/mL; with M. catarrhalis BC3534, 32 µg/mL (≈ 101 µM).

Turning to `CC(=O)NCC1CN(c2ccc3c(c2)OCCCC3=O)C(=O)O1` (stereo not shown) [Example 12, N-[2-Oxo-3-(5-oxo-2,3,4,5-tetrahydro-benzo[b]oxepin-8-yl)-oxazolidin-5-ylmethyl]-acetamide], in experiment [1], the “Inhibitory concentration in E. coli cell-free transcription/translation assay” value was 1.1 µg/mL. The MIC in the experiment on E. faecalis MGH-2 is 4 µg/mL (≈ 12.6 µM); in the experiment with S pyogenes C203, 2 µg/mL (≈ 6.28 µM); in the experiment with S. aureus UC-76 it was 8 µg/mL (≈ 25.1 µM); in the experiment with H. influenzae H13542, 32 µg/mL (≈ 101 µM); in the experiment on E. coli Tol C it was more than 64 µg/mL; in the experiment with M. catarrhalis BC3534 it was 16 µg/mL (≈ 50.3 µM).

Take `CC(=O)NCC1CN(c2ccc3c(c2)CCCCN3)C(=O)O1` (stereo not shown) [Example 14, N-[2-Oxo-3-(2,3,4,5-tetrahydro-1H-benzo[b]azepin-7-yl)-oxazolidin-5-ylmethyl]-acetamide]: the MIC in the experiment on E. faecalis MGH-2 was 64 µg/mL (≈ 211 µM); with S pyogenes C203 it was 16 µg/mL (≈ 52.7 µM); in the experiment on S. aureus UC-76 it was 32 µg/mL (≈ 105 µM); with H. influenzae H13542, 64 µg/mL (≈ 211 µM); in the experiment with E. coli Tol C it was more than 64 µg/mL; with M. catarrhalis BC3534, more than 64 µg/mL.

With `CC(=O)NC[C@H]1CN(c2ccc3c(c2)CCCCC3)C(=O)O1` [drawing 69], the MIC in the experiment on E. faecalis MGH-2 is 4 µg/mL (≈ 13.2 µM); in the experiment with S pyogenes C203, 2 µg/mL (≈ 6.61 µM); in the experiment on S. aureus UC-76 it was 2 µg/mL (≈ 6.61 µM); with H. influenzae H13542 it was more than 64 µg/mL; with E. coli Tol C it was more than 64 µg/mL; in the experiment on M. catarrhalis BC3534, 16 µg/mL (≈ 52.9 µM).

For `CC(=O)NC[C@H]1CN(c2ccc3c(c2)CCCCC3)C(=O)O1` [drawing 70], the “Inhibitory concentration in E. coli cell-free transcription/translation assay” value in experiment [1] was found to be 6.6 µg/mL.

As for `CC(=O)NC[C@H]1CN(c2ccc3c(c2)CCC/C(=C\c2ccc(F)cc2)C3=O)C(=O)O1` [drawing 72], in experiment [1], the “Inhibitory concentration in E. coli cell-free transcription/translation assay” value worked out at 1.4 µg/mL. For the same molecule, the MIC with H. influenzae H13542 is 2 µg/mL (≈ 4.73 µM); in the experiment on E. coli Tol C, more than 64 µg/mL; in the experiment with M. catarrhalis BC3534 it was 1 µg/mL (≈ 2.37 µM).

As to `CC(=O)NC[C@H]1CN(c2ccc3c(c2)CCC/C(=C\c2ccncc2)C3=O)C(=O)O1` [drawing 72], the MIC in the experiment on E. faecalis MGH-2, in the experiment with S pyogenes C203 and in the experiment with S. aureus UC-76 was 1 µg/mL (≈ 2.47 µM) throughout.

Take `CC(=O)NC[C@H]1CN(c2ccc3c(c2)CCC/C(=C\c2ccc(F)cc2)C3=O)C(=O)O1` [drawing 73]: the MIC with E. faecalis MGH-2, with S pyogenes C203 and with S. aureus UC-76 was 0.5 µg/mL (≈ 1.18 µM) each time.

Turning to `CC(=O)NC[C@H]1CN(c2ccc3c(c2)CCC/C(=C\c2ccncc2)C3=O)C(=O)O1` [drawing 73], the “Inhibitory concentration in E. coli cell-free transcription/translation assay” value in experiment [1] came to 2.7 µg/mL. The values for the MIC with H. influenzae H13542, in the experiment on E. coli Tol C and with M. catarrhalis BC3534 were 16 µg/mL (≈ 39.5 µM), more than 64 µg/mL and 8 µg/mL (≈ 19.7 µM), respectively.

For “N-[2-Oxo-3-(2,3,4,5-tetrahydro-1H-benzo [c] azepin-7-yl)-oxazolidin-5-ylmethyl]-acetamide and N-[2-Oxo-3-(2,3,4,5-tetrahydro-1H-benzo[d]azepin-7-yl)-oxazolidin-5-ylmethyl]-acetamide [Example 15]”, the “Inhibitory concentration in E. coli cell-free transcription/translation assay” value in experiment [1] turned out to be 11 µg/mL. The “Minimum Inhibitory Concentrations, E. faecalis MGH-2” value with E. faecalis MGH-2 came out at 64 µg/mL. In the experiment on S pyogenes C203, the “Minimum Inhibitory Concentrations, S pyogenes C203” value was 64 µg/mL. Moreover, in the experiment with S. aureus UC-76, the “Minimum Inhibitory Concentrations, S. aureus UC-76” value came out at 64 µg/mL. Moreover, the “Minimum Inhibitory Concentrations, H. influenzae H13542” value in the experiment on H. influenzae H13542 is more than 64 µg/mL. The “Minimum Inhibitory Concentrations, E. coli Tol C” value in the experiment on E. coli Tol C (Gram Negative Bacteria, strain Tol C) was more than 64 µg/mL. The “Minimum Inhibitory Concentrations, M. catarrhalis BC3534” value in the experiment with M. catarrhalis BC3534 is more than 64 µg/mL.
